Reference: patent publication US20160106102A1, “KNOWN AND NEW HETEROCYCLIC COMPOUNDS AS PEST CONTROL AGENTS” (BAYER CROPSCIENCE AKTIENGESELLSCHAFT, priority 2013, published 2016)

test: log P determination by LC-MS in the acidic range; type: physicochemical; conditions: LC-MS in the acidic range
From the text: The LC-MS determination in the acidic range is effected at pH 2.7 using 0.1% aqueous formic acid and acetonitrile (contains 0.1% formic acid) as eluents, linear gradient from 10% acetonitrile to 95% acetonitrile. Alternatively, the determination is effected in the acidic range at pH 2.3 using 0.1% aqueous phosphoric acid and acetonitrile as eluents; linear gradient from 10% acetonitrile to 95% acetonitrile.

In order of rising “log P (acid)” value:
1. Cc1cc(NC(=O)c2cccnc2)nn1CC(=O)O [Compound I-1-115]  0.09
2. CCOC(=O)c1cn(Cc2ccccc2)nc1NC(=O)c1cccnc1 [Compound I-1-272]  0.79
3. CCCNS(=O)(=O)n1nc(NC(=O)c2cccnc2)cc1C [Compound I-1-258]  1.07
4. Cc1cnn(Cn2nc(NC(=O)c3ccnnc3)cc2C)c1 [Compound I-1-256]  1.1
5. Cc1cc(C)nc(Cn2nc(NC(=O)c3ccnnc3)cc2C)n1 [Compound I-1-251]  1.14
6. Cc1cc(NC(=O)c2ccnnc2)nn1CC(F)(F)F [Compound I-1-250]  1.2
7. CSc1c(Cl)c(NC(=O)c2cccnc2)nn1C [Compound I-1-201]  1.25
8. Cc1cc(NC(=O)c2ccnnc2)nn1Cn1nc(C2CC2)n(C2CC2)c1=O [Compound I-1-150]  1.33
9. Cc1cc(NC(=O)c2ccnnc2)nn1Cc1ncccc1Cl [Compound I-1-254]  1.33
10. COc1cc(OC)nc(Cn2nc(NC(=O)c3ccnnc3)cc2C)n1 [Compound I-1-252]  1.5
11. Cn1nc(NC(=O)c2cncc(F)c2)c(Br)c1OC(F)F [Compound I-1-113]  1.67
12. Cc1cc(NC(=O)c2ccnnc2)nn1Cn1ccc(C(F)(F)F)n1 [Compound I-1-255]  1.73
13. Cc1cc(NC(=O)c2cccnc2)nn1-c1ccccn1 [Compound I-1-230]  2.19
14. Cc1nn(-c2ccccc2)nc1Cn1nc(NC(=O)c2cccnc2)cc1C [Compound I-1-303]  2.33
15. COc1ccc(C(=O)Nc2cc(C)n(Cc3cccc(F)c3)n2)cn1 [Compound I-1-94]  2.51
16. COc1ccc(C(=O)Nc2cc(C)n(Cc3ccccc3F)n2)cn1 [Compound I-1-105]  2.52
17. Cc1cc(F)c(Cn2nc(NC(=O)c3cccnc3)cc2C)cc1SCC(F)(F)F [Compound I-1-337]  2.89
18. Cc1cc(NC(=O)c2cnc(Cl)c(Cl)c2)nn1Cc1cccc(F)c1 [Compound I-1-96]  3.26

same assay, conditions: Table 2, compounds of the formula (I-2); acidic range pH 2.7 or pH 2.3

In order of rising “log P (acid)” value:
1. Cc1nc(NC(=O)c2cccnc2)nn1Cc1ncccn1 [Compound I-2-2]  −0.05
2. CCCn1cnc(NC(=O)c2cccnc2)n1 [Compound I-2-21]  0.29
3. CN(C)C(=O)n1cnc(NC(=O)c2cccnc2)n1 [Compound I-2-9]  0.47
4. O=C(Nc1ncn(-c2ncccc2Br)n1)c1cccnc1 [Compound I-2-15]  0.67
5. O=C(Nc1ncn(-c2ccccc2)n1)c1cccnc1 [Compound I-2-5]  0.98
6. Cc1nc(-n2cnc(NC(=O)c3cccnc3)n2)nc(C)c1C [Compound I-2-25]  1.07
7. COc1nc(NC(=O)c2cccnc2)nn1-c1ccccc1 [Compound I-2-28]  1.23
8. O=C(Nc1ncn(Cc2ccc(Cl)cc2)n1)c1cccnc1 [Compound I-2-13]  1.36
9. CCOc1nc(OCC)nc(-n2cnc(NC(=O)c3cccnc3)n2)n1 [Compound I-2-10]  1.41
10. O=C(Nc1nc(Cl)n(-c2ccccc2)n1)c1cccnc1 [Compound I-2-27]  1.58

same assay, conditions: Table 3; HPLC on reversed-phase column (C 18), 55° C., acidic range (pH 2.7 or pH 2.3)

In order of falling “log P (acid)” value:
1. O=C(Nc1nn(-c2ccc(Cl)cc2)nc1C(F)(F)F)c1cccnc1 [Compound I-3-20]  2.93
2. Cc1nn(-c2cccc(C(F)(F)F)c2)nc1NC(=O)c1cccnc1 [Compound I-3-18]  2.58
3. O=C(Nc1nn(-c2ccccc2)nc1C(F)(F)F)c1cccnc1 [Compound I-3-12]  2.44
4. O=C(Nc1cnn(-c2ncc(Cl)cc2Cl)n1)c1cccnc1 [Compound I-3-15]  1.83
5. Cc1nn(-c2ccccc2)nc1NC(=O)c1cccnc1 [Compound I-3-11]  1.82
6. O=C(Nc1cnn(-c2c(F)cccc2F)n1)c1cccnc1 [Compound I-3-24]  1.67

same assay, conditions: Table 4; HPLC on reversed-phase column (C 18), 55° C., acidic range (pH 2.7 or pH 2.3)

In order of falling “log P (acid)” value:
1. O=C(Cn1nnc(NC(=O)c2cccnc2)n1)NCc1cccc2ccccc12 [Compound I-4-7]  1.71
2. O=C(Nc1nnn(Cc2ccccc2)n1)c1cccnc1 [Compound I-4-10]  1.38
3. COc1cc(OC)nc(-n2nnc(NC(=O)c3cccnc3)n2)n1 [Compound I-4-4]  1.35
4. CCCn1nnc(NC(=O)c2cccnc2)n1 [Compound I-4-9]  0.76

same assay, conditions: amines of the formula (II-1); acidic range pH 2.7 (0.1% formic acid/acetonitrile) or pH 2.3 (0.1% phosphoric acid/acetonitrile)

In order of rising “log P (acid)” value:
1. Cc1cc(N)nn1Cn1c(=O)n(C)c(=O)n1C [II-1-48]  0.03
2. CSCn1nc(N)cc1C [II-1-60]  0.14
3. Cc1cc(N)nn1Cc1nccs1 [II-1-10]  0.19
4. Cc1cc(N)nn1Cc1ncccc1C#N [II-1-25]  0.21
5. Cn1nc(N)cc1C(F)F [II-1-40]  0.22
6. Cc1cc(N)nn1Cn1nc(C)n(C2CC2)c1=O [II-1-49]  0.43
7. Cc1cc(N)nn1C(F)F [II-1-27]  0.47
8. Cc1cc(N)nn1CSc1ncccn1 [II-1-51]  0.49
9. CC(C)=NOCn1nc(N)cc1C [II-1-52]  0.57
10. Cc1cc(N)nn1Cc1ncccc1Cl [II-1-24]  0.6
11. Cc1cc(N)nn1Cc1ccc(Cl)nc1 [II-1-5]  0.77
12. Cc1cc(N)nn1-c1ncccc1Cl [II-1-31]  0.79
13. Cc1c(Br)c(N)nn1Cc1ncccn1 [II-1-34]  0.92
14. Nc1cc(C(F)(F)F)n(Cc2ncccn2)n1 [II-1-35]  1.06
15. CCc1cc(N)nn1Cc1ccc(Cl)nc1 [II-1-19]  1.11
16. Cc1cc(N)nn1CC=C(Cl)Cl [II-1-56]  1.13
17. Cc1cc(N)nn1Cn1nccc1C(F)(F)F [II-1-41]  1.26
18. Cc1cc(N)nn1CC(=O)Cc1ccccc1Cl [II-1-58]  1.39
19. Cc1cc(N)nn1Cc1cccc(OC(F)(F)F)c1 [II-1-11]  1.39

In the case of `Cc1cc(N)nn1Cn1ccnn1` [II-1-45], the “log P (acid)” value is reported as <−0.23.
For `Cc1cc(N)nn1Cc1ncnn1C` [II-1-63], the “log P (acid)” value was <−0.23.

same assay, conditions: pH 2.7, LC-MS in the acidic range; read-out: log P (acid)

In order of rising chromatographic logP:
1. COC(=O)c1cc(NC(=O)c2cncc(F)c2)nn1C [Compound I-1-134, Methyl 3-{[(5-fluoropyridin-3-yl)carbonyl]amino}-1-methyl-1H-pyrazole-5-carboxylate]  1.5
2. Cc1cc(NC(=O)c2cccnc2)nn1C(=O)C1CC1 [Compound I-1-121, N-[1-(Cyclopropylcarbonyl)-5-methyl-1H-pyrazol-3-yl]nicotinamide]  1.65
3. O=C(Nc1ccn(Cc2ncc(C(F)(F)F)cc2Cl)n1)c1ccc(Cl)nc1 [Compound I-1-118, 6-Chloro-N-(1-{[3-chloro-5-(trifluoromethyl)pyridin-2-yl]methyl}-1H-pyrazol-3-yl)nicotinamide]  2.64

same assay, conditions: pH 2.7, amines of the formula (II-1); acidic range pH 2.7 (0.1% formic acid/acetonitrile) or pH 2.3 (0.1% phosphoric acid/acetonitrile); read-out: log P (acid)

`Nc1ccn(Cc2ncc(C(F)(F)F)cc2Cl)n1` [II-1-8, 1-{[3-Chloro-5-(trifluoromethyl)pyridin-2-yl]methyl}-1H-pyrazole-3-amine] gave a chromatographic logP of 1.36.

same assay, conditions: pH 2.7, values given in the synthesis examples and NMR lists; read-out: HPLC-MS: log P

In order of rising chromatographic logP:
1. Cc1cn(Cc2ncccn2)nc1N [4-Methyl-1-(pyrimidin-2-ylmethyl)-1H-pyrazole-3-amine]  -0.22
2. Cc1cc(N)nn1C(=O)OC(C)(C)C [tert-Butyl 3-amino-5-methyl-1H-pyrazole-1-carboxylate]  1.23
3. Cc1c[nH]nc1N1C(=O)c2ccccc2C1=O [2-(4-Methyl-1H-pyrazol-3-yl)-1H-isoindole-1,3(2H)-dione]  1.34
4. Nc1ccn(Cc2ncc(C(F)(F)F)cc2Cl)n1 [II-1-8, 1-{[3-Chloro-5-(trifluoromethyl)pyridin-2-yl]methyl}-1H-pyrazole-3-amine]  1.36
5. Cc1cc([N+](=O)[O-])nn1-c1ncccn1 [2-(5-Methyl-3-nitro-1H-pyrazol-1-yl)pyrimidine]  1.41
6. COC(=O)c1cc(NC(=O)c2cncc(F)c2)nn1C [Compound I-1-134, Methyl 3-{[(5-fluoropyridin-3-yl)carbonyl]amino}-1-methyl-1H-pyrazole-5-carboxylate]  1.5
7. Cc1cc(NC(=O)c2cccnc2)nn1C(=O)C1CC1 [Compound I-1-121, N-[1-(Cyclopropylcarbonyl)-5-methyl-1H-pyrazol-3-yl]nicotinamide]  1.65
8. O=C1c2ccccc2C(=O)N1c1cc(Br)[nH]n1 [2-(5-Bromo-1H-pyrazol-3-yl)-1H-isoindole-1,3(2H)-dione]  1.83
9. O=C1c2ccccc2C(=O)N1c1cc(Br)n(Cc2ncccn2)n1 [2-[5-Bromo-1-(pyrimidin-2-ylmethyl)-1H-pyrazol-3-yl]-1H-isoindole-1,3(2H)-dione]  2.02
10. O=C(Nc1ccn(Cc2ncc(C(F)(F)F)cc2Cl)n1)c1ccc(Cl)nc1 [Compound I-1-118, 6-Chloro-N-(1-{[3-chloro-5-(trifluoromethyl)pyridin-2-yl]methyl}-1H-pyrazol-3-yl)nicotinamide]  2.64
11. O=[N+]([O-])c1ccn(Cc2ncc(C(F)(F)F)cc2Cl)n1 [3-Chloro-2-[(3-nitro-1H-pyrazol-1-yl)methyl]-5-(trifluoromethyl)pyridine]  2.67
